In US20250197356A1, “METHOD FOR SYNTHESIZING NUCIFERINE OR DERIVATIVE THEREOF, DERIVATIVE OF NUCIFERINE AND USE THEREOF” (HUAQIAO UNIVERSITY, priority 2022, published 2025):

Assays:
hyperlipidemia rats [1] = experiment: Liver and kidney indexes in high-fat diet hyperlipidemia rats; type: in vivo, SD rats; details: 20 mg/(kg d) by gastric gavage, 4 weeks, x ± s, n = 9
From the text: (§1) Animals: 54 SPF-grade SD rats, weighing 120±10 g, provided by Laboratory Animal Business Department, Shanghai Family Planning Research Institute, China, Animal license number: SCXK(Shanghai)2018-0006.
(§2) Modeling scheme: 54 adult rats of 120±10 g were selected and fed adaptively for three days. They were then randomly divided to 6 groups, 9 animals for each group. They were blank control group, model group, positive control group, nuciferine group, and nuciferine structural modification group. The blank control group was fed with normal diet. […] The feeding and modeling time was 5 weeks.
(§3) Liver tissue sample collection: the rats were killed by dislocation, and the liver was taken out immediately after death, which was observed by naked eye to find out whether there was abnormal color and lesions, and was then rinsed with ice normal saline. The left lobe of the liver was quickly cut into small pieces and fixed in 10% formaldehyde overnight for sectioning. The tissue of the right lobe of the liver was quickly wrapped in tin box and stored at −80° C. for later use.

hyperlipidemia rats [2] = experiment: Serum biochemical indicators in high-fat diet hyperlipidemia rats; type: in vivo, SD rats; details: for LDL-C / TC / TG / ALT (U/L) / AST (U/L) / Bun / Cr: serum, 20 mg/(kg d) by gastric gavage, 4 weeks; for ALT (U/L) / AST (U/L) / Bun / Cr: x ± s, n = 9
From the text: as §1
(§4) Drug to be tested: Nuciferine purchased from Shanghai Aladdin Biochemical Technology Co., Ltd., China, and its derivatives (purity >99%) that were synthesized in the laboratory by the methods of Examples 2-7.
(§5) Other reagents: AST, ALT, TC, TG, NEFA, Bun, Cr, CAT, GSH-Px, GSH, MDA test kits, purchased from Nanjing Jiancheng Bioengineering Institute, China; HL and PL test kits, purchased from Jianglai Biotechnology Co., Ltd., China; experimental reagents such as anhydrous ethanol, xylene, isopropanol neutral gum, purchased from Sinopharm Chemical Reagent Co., Ltd., China; HE dye solution, DAB color development agent, and oil red O dye solution, purchased from KeyGEN Biotechnology Co., Ltd, China; Antibodies IL-6 and TNF-α, purchased from Abcam Limited.
as §2, with “weeks. Within 4 weeks after modeling, continuous administration was performed: the blank control group and model group were given 0.2 mL of distilled water by gastric gavage; the positive control group was administrated 20 mg/(kg d) of simvastatin; while the treatment group was administrated 20 mg/(kg d) of nuciferine or 20 mg/(kg d) of a derivative of nuciferine (compounds 6a-6f).” for “weeks.”
Blood sample collection: 24 h after the last gastric gavage administration, eyeballs were taken out and blood was drawn. Whole blood was collected in an EP tube, and centrifuged at 3000 r/min and 4° C. for 10 min, and the supernatant was collected and stored at −20° C. for blood biochemical indicator test.
(§6) Biochemical indicator determination: indicators AST, ALT, TC, TG, NEFA, Bun, Cr, CAT, GSH-Px, GSH, MDA, HL, PL were determined according to the instructions of the kits.

hyperlipidemia rats [3] = experiment: Liver tissue homogenate biochemical indicators in high-fat diet hyperlipidemia rats; type: in vivo, SD rats; details: for CAT (U/mgprot) / GSH (μmol/gprot) / GSH-Px (U/mgprot) / HL (U/mgprot) / LPL (U/mgprot) / MDA (nmol/mgprot) / NEFA (μmol/g prot) / TG (mmol/g prot): liver tissue, 20 mg/(kg d) by gastric gavage, 4 weeks, x ± s, n = 9
From the text: as §1, §4, §5
as §2, with “weeks. Within 4 weeks after modeling, continuous administration was performed: the blank control group and model group were given 0.2 mL of distilled water by gastric gavage; the positive control group was administrated 20 mg/(kg d) of simvastatin; while the treatment group was administrated 20 mg/(kg d) of nuciferine or 20 mg/(kg d) of a derivative of nuciferine (compounds 6a-6f).” for “weeks.”
as §3
Preparation of 10% liver homogenate: the liver wrapped in tin box and stored in the ultra-low temperature freezer at −80° C. was taken out, and quickly placed on an ice box. 0.2 g of liver tissue was accurately taken, and ice normal saline with a volume 9 times that of the liver issue was added thereto. 10% tissue homogenate was formed by grounding and mixing, and then centrifuged at 3000 r/min and 4° C. for 10 min. The supernatant was collected for later use.
as §6

hyperlipidemia rats [4] = experiment: Liver appearance and HE histopathological observation in hyperlipidemia rats; type: in vivo, SD rats; details: compared with the model group, 20 mg/(kg d)
From the text: as §1, §2, §3

hyperlipidemia rats [5] = experiment: Oil red O staining of liver in hyperlipidemia rats; type: in vivo, SD rats; details: compared with the model group, 20 mg/(kg d)
From the text: as §1, §4
as §2, with “weeks. Within 4 weeks after modeling, continuous administration was performed: the blank control group and model group were given 0.2 mL of distilled water by gastric gavage; the positive control group was administrated 20 mg/(kg d) of simvastatin; while the treatment group was administrated 20 mg/(kg d) of nuciferine or 20 mg/(kg d) of a derivative of nuciferine (compounds 6a-6f). […]” for “weeks.”

IL-6 = experiment: Immunohistochemistry of liver of hyperlipidemia rats; type: in vivo, SD rats; details: compared with the model group, 20 mg/(kg d)
From the text: as §1, §4, §5
(§7) Modeling scheme: 54 adult rats of 120±10 g were selected and fed adaptively for three days. They were then randomly divided to 6 groups, 9 animals for each group. They were blank control group, model group, positive control group, nuciferine group, and nuciferine structural modification group. The blank control group was fed with normal diet. […] The feeding and modeling time was 5 weeks. […]

TNF-α = experiment: as above; type: in vivo, SD rats; details: compared with the model group, 20 mg/(kg d)
From the text: as §1, §4, §5, §7

[6] = TCMSP database, screening threshold OB ≥30%; cited from earlier work

Structure (SMILES) | Kidney index (%) (hyperlipidemia rats [1]) | Liver index (%) (hyperlipidemia rats [1]) | LDL-C (hyperlipidemia rats [2]) | TC (hyperlipidemia rats [2]) | TG (hyperlipidemia rats [2]) | ALT (U/L) (hyperlipidemia rats [2]) | AST (U/L) (hyperlipidemia rats [2]) | Bun (hyperlipidemia rats [2]) | Cr (hyperlipidemia rats [2]) | CAT (U/mgprot) (hyperlipidemia rats [3]) | GSH (μmol/gprot) (hyperlipidemia rats [3]) | GSH-Px (U/mgprot) (hyperlipidemia rats [3]) | HL (U/mgprot) (hyperlipidemia rats [3]) | LPL (U/mgprot) (hyperlipidemia rats [3]) | MDA (nmol/mgprot) (hyperlipidemia rats [3]) | NEFA (μmol/g prot) (hyperlipidemia rats [3]) | TG (mmol/g prot) (hyperlipidemia rats [3]) | Liver appearance (photographs, FIG. 8) (hyperlipidemia rats [4]) | also measured
COc1cc2c3c(c1OC)-c1ccccc1C[C@H]3N(C)CC2 [Nuciferine] | 0.68 ± 0.04 % | 4.52 ± 0.30 % | 0.53 ± 0.12 mmol/L | 1.90 ± 0.19 mmol/L | 0.48 ± 0.04 mmol/L | 13.97 ± 5.71 U/L | 6.43 ± 1.56 U/L | 3.27 ± 0.22 mmol/L | 52.59 ± 4.81 µmol/L | 28.44 ± 3.34 U/mgprot | 377.68 ± 137.77 μmol/gprot | 720.65 ± 59.57 U/mgprot | 0.47 ± 0.05 U/mgprot | 0.43 ± 0.07 U/mgprot | 0.92 ± 0.15 nmol/mgprot | 99.87 ± 8.25 μmol/g prot | 0.08 ± 0.01 mmol/g prot |  | Content of HDL-C in the serum, result in words (hyperlipidemia rats [2]; compared with the model group): significantly increases; Serum AST and ALT contents, result in words (hyperlipidemia rats [2]; compared with the model group): best effect; HL and LPL contents in liver tissue, result in words (hyperlipidemia rats [3]; compared with the model group): best effect; NEFA content in liver tissue, result in words (hyperlipidemia rats [3]; compared with the model group): significantly decreases; HE-stained liver tissue: lipid vacuoles and inflammatory infiltration (FIG. 9) (hyperlipidemia rats [4]): lipid vacuoles in hepatocytes are significantly reduced; Oil red O-stained liver sections: lipid accumulation (FIG. 10) (hyperlipidemia rats [5]): reduced fat accumulation; Expression level of IL-6 in liver (FIG. 11) (IL-6): decrease; Expression level of TNF-α in liver (FIG. 12) (TNF-α): decrease; OB/% (oral bioavailability) [6]: 34.43%
COc1cc2c3c(c1OC)-c1ccccc1CC3N(C(=O)c1ccccc1)CC2 (centres unmarked) [Compound 6a, Benzoylnuciferine] | 0.68 ± 0.04 % | 4.58 ± 0.29 % | 0.54 ± 0.09 mmol/L | 1.94 ± 0.18 mmol/L | 0.56 ± 0.05 mmol/L | 15.46 ± 8.79 U/L | 7.85 ± 2.23 U/L | 3.16 ± 0.17 mmol/L | 51.82 ± 7.06 µmol/L | 26.06 ± 2.69 U/mgprot | 360.02 ± 43.63 μmol/gprot | 550.96 ± 60.97 U/mgprot | 0.35 ± 0.03 U/mgprot | 0.27 ± 0.03 U/mgprot | 0.94 ± 0.27 nmol/mgprot | 107.69 ± 6.44 μmol/g prot | 0.10 ± 0.02 mmol/g prot | more brittle | 
COc1cc2c3c(c1OC)-c1ccccc1CC3N(C(=O)c1ccc(F)cc1)CC2 (centres unmarked) [Compound 6b, p-Fluorobenzoylnuciferine] | 0.68 ± 0.02 % | 4.58 ± 0.23 % | 0.68 ± 0.16 mmol/L | 2.01 ± 0.14 mmol/L | 0.57 ± 0.08 mmol/L | 16.43 ± 9.51 U/L | 7.91 ± 2.21 U/L | 3.48 ± 0.24 mmol/L | 53.90 ± 1.81 µmol/L | 25.90 ± 4.29 U/mgprot | 365.04 ± 71.78 μmol/gprot | 532.14 ± 30.92 U/mgprot | 0.51 ± 0.05 U/mgprot | 0.29 ± 0.10 U/mgprot | 1.03 ± 0.33 nmol/mgprot | 106.32 ± 22.95 μmol/g prot | 0.13 ± 0.02 mmol/g prot | more brittle | 
